{
  "source": "ChEMBL document CHEMBL5365478",
  "about": "“Structure-Based Design and Synthesis of Stapled 10Panx1 Analogues for Use in Cardiovascular Inflammatory Diseases” (J Med Chem, 2023)",
  "key": {"[1]": {"target": "Pannexin-1 (Mus musculus) (UniProt Q9JIP4)", "sequence (Q9JIP4 whole entry)": "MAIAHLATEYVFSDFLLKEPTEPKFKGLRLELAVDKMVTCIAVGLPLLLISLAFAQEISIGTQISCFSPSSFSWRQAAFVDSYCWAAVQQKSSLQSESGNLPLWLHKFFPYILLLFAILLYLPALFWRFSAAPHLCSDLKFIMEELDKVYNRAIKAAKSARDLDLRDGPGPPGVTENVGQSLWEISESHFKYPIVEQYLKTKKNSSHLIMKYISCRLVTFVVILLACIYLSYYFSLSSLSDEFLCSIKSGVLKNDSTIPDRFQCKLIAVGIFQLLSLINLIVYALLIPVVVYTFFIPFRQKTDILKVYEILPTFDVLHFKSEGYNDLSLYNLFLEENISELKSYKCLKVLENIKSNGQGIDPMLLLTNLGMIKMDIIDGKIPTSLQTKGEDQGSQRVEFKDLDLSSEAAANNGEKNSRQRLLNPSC", "test": "Inhibition of PANX1 in mouse B16-BL6 cells assessed as reduction in HOS-induced ATP release at 12.5 uM preincubated for 10 mins followed by HOS solution addition and measured after 30 mins by bioluminescence analysis", "format": "cell-based", "conditions": "time 40.0 min"}, "[2]": {"target": "Pannexin-1 (Mus musculus) (UniProt Q9JIP4)", "test": "Inhibition of PANX1 in mouse B16-BL6 cells assessed as reduction in HOS-induced ATP release at 100 uM preincubated for 10 mins followed by HOS solution addition and measured after 30 mins by bioluminescence analysis relative to control", "format": "cell-based", "conditions": "time 40.0 min"}, "[3]": {"test_system": "B16-BL6", "test": "Cytotoxicity against mouse B16-BL6 cells at 12.5 to 100 uM incubated for 30 mins with compound in HOS solution by LDH assay", "format": "toxicity, cell-based", "conditions": "b16-bl6, 0.5 h, dose 12.5-100 µM"}, "[4]": {"test_system": "EA.hy 926", "test": "Antiinflammatory activity in TNF-alpha stimulated human EA.hy926 cells cocultured with human THP-1 cells assessed as inhibition of monocyte adhesion at 12.5 uM incubated for 15 mins followed by adhesion for 2 hrs", "format": "functional, cell-based", "conditions": "time 135.0 min"}, "[5]": {"test": "Stability in human plasma assessed as intact parent compound level measured after 24 hrs by LC-MS analysis", "format": "ADME, cell-free", "conditions": "read-out: Stability"}, "[6]": {"target": "Pannexin-1 (Homo sapiens) (UniProt Q96RD7)", "sequence (Q96RD7 whole entry)": "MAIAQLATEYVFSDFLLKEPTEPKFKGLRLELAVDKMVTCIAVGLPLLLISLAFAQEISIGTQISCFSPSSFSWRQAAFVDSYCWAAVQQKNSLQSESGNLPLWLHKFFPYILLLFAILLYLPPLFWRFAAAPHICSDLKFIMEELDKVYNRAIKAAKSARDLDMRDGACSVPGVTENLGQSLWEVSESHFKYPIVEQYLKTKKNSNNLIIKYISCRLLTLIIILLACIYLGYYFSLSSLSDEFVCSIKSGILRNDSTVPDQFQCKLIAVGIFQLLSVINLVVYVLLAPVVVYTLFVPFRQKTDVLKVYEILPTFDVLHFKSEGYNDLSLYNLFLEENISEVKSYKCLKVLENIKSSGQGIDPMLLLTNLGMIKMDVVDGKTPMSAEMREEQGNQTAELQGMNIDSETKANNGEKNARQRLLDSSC", "test": "Inhibition of PANX1 in human EA.hy 926 cells assessed as reduction in HOS-induced ATP release at 12.5 uM preincubated for 10 mins followed by HOS solution addition and measured after 30 mins by bioluminescence analysis relative to control", "format": "cell-based", "conditions": "time 40.0 min"}, "[7]": {"test_system": "EA.hy 926", "test": "Cytotoxicity against human EA.hy 926 cells at 12.5 to 100 uM incubated for 30 mins with compound in HOS solution by LDH assay", "format": "toxicity, cell-based", "conditions": "ea.hy 926, 0.5 h, dose 12.5-100 µM"}, "[8]": {"test_system": "B16-BL6", "test": "Cytotoxicity against mouse B16-BL6 cells at 6.25 to 100 uM incubated for 30 mins with compound in HOS solution by LDH assay", "format": "toxicity, cell-based", "conditions": "b16-bl6, 0.5 h, dose 6.25-100 µM"}, "[9]": {"target": "Pannexin-1 (Mus musculus) (UniProt Q9JIP4)", "test": "Inhibition of PANX1 in mouse B16-BL6 cells assessed as reduction in HOS-induced ATP release preincubated for 10 mins followed by HOS solution addition and measured after 30 mins by bioluminescence analysis", "format": "cell-based", "conditions": "dose 6.25-400 µM, time 40.0 min"}, "[10]": {"target": "Pannexin-1 (Rattus norvegicus) (UniProt P60570)", "sequence (P60570 whole entry)": "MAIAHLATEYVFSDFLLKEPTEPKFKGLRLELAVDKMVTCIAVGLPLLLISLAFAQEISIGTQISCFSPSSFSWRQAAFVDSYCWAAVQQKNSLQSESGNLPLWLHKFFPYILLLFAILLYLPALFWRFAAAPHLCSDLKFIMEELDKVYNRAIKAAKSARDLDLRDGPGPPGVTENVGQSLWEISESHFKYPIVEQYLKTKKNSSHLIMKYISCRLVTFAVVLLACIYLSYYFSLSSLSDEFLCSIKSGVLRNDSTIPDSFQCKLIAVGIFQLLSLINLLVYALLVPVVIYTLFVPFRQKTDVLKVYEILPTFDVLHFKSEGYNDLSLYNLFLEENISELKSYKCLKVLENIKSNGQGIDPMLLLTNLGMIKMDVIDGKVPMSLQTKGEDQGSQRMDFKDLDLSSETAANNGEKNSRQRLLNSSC", "test": "Inhibition of PANX1 in rat H9C2 cells assessed as reduction in HOS-induced ATP release at 12.5 to 100 uM preincubated for 10 mins followed by HOS solution addition and measured after 30 mins by bioluminescence analysis", "format": "cell-based", "conditions": "dose 12.5-100 µM, time 40.0 min"}, "[11]": {"target": "Pannexin-1 (Mus musculus) (UniProt Q9JIP4)", "test": "Inhibition of PANX1 in mouse B16-BL6 cells assessed as reduction in HOS-induced Yo-Pro-1 uptake by measuring reduction in green fluorescence at 12.5 uM preincubated for 10 mins followed by HOS solution addition and measured after 30 mins by fluorescence based analysis", "format": "cell-based", "conditions": "time 40.0 min"}, "[12]": {"test": "Stability in human plasma assessed as half life at 1.2 mM incubated for 30 mins by LC-MS analysis", "format": "ADME, cell-free"}, "[13]": {"target": "Pannexin-1 (Homo sapiens) (UniProt Q96RD7)", "test": "Inhibition of PANX1 in human EA.hy 926 cells assessed as reduction in HOS-induced ATP release at 100 uM preincubated for 10 mins followed by HOS solution addition and measured after 30 mins by bioluminescence analysis", "format": "cell-based", "conditions": "time 40.0 min"}, "[14]": {"test_system": "EA.hy 926", "test": "Antiinflammatory activity in TNF-alpha stimulated human EA.hy926 cells cocultured with human THP-1 cells assessed as inhibition of monocyte adhesion at 100 uM incubated for 15 mins followed by adhesion for 2 hrs relative to control", "format": "functional", "conditions": "EA.hy 926, 2.25 h, time 135 min"}, "[15]": {"target": "Pannexin-1 (Mus musculus) (UniProt Q9JIP4)", "test": "Inhibition of PANX1 in mouse B16-BL6 cells assessed as reduction in HOS-induced Yo-Pro-1 uptake by measuring reduction in green fluorescence at 100 uM preincubated for 10 mins followed by HOS solution addition and measured after 30 mins by fluorescence based analysis relative to control", "format": "cell-based", "conditions": "time 40.0 min"}, "[16]": {"target": "Pannexin-1 (Mus musculus) (UniProt Q9JIP4)", "test": "Inhibition of PANX1 in mouse B16-BL6 cells assessed as reduction in HOS-induced Yo-Pro-1 uptake by measuring reduction in green fluorescence at 2.5 mM preincubated for 10 mins followed by HOS solution addition and measured after 30 secs to 30 mins by fluorescence based analysis", "format": "cell-based", "conditions": "time 10.5-40 min"}, "[17]": {"test_system": "B16-BL6", "test": "Cytotoxicity against mouse B16-BL6 cells at 2.5 mM incubated for 30 mins with compound in HOS solution by LDH assay", "format": "toxicity, cell-based", "conditions": "b16-bl6, 0.5 h, 2500 µM"}, "[18]": {"target": "Pannexin-1 (Rattus norvegicus) (UniProt P60570)", "test": "Inhibition of PANX1 in rat H9C2 cells assessed as reduction in HOS-induced ATP release at 2.5 mM preincubated for 10 mins followed by HOS solution addition and measured after 30 mins by bioluminescence analysis", "format": "cell-based", "conditions": "time 40.0 min"}, "[19]": {"target": "Pannexin-1 (Homo sapiens) (UniProt Q96RD7)", "test": "Inhibition of PANX1 in human EA.hy 926 cells assessed as reduction in HOS-induced ATP release at 2.5 mM preincubated for 10 mins followed by HOS solution addition and measured after 30 mins by bioluminescence analysis", "format": "cell-based", "conditions": "time 40.0 min"}},
  "note": "Calls of active or inactive are those of the source. No cut-off for these calls is given here. Bridge positions count the residues as written; N and C are the ends. Square brackets hold non-standard residues; d marks the D form. Triazole bridges read from a SMILES are 1,4-linked. Peptide text beside a SMILES is read from it. Lys(N3) = [N-]=[N+]=NCCCC[C@H](N)C(=O)O; Pra = C#CC[C@H](N)C(=O)O; Ahx = NCCCCCC(=O)O",
  "data": [
    {"molecule": "CC(=O)N[C@H]1Cc2cn(nn2)CCCC[C@@H](C(=O)N[C@H]2Cc3cn(nn3)CCCC[C@@H](C(=O)N[C@@H](Cc3ccc(O)cc3)C(N)=O)NC(=O)[C@H](CC(=O)O)NC(=O)[C@H](C(C)C)NC(=O)[C@H](Cc3ccccc3)NC2=O)NC(=O)[C@H](CCC(N)=O)NC(=O)[C@H](CCCNC(=N)N)NC(=O)[C@H](Cc2c[nH]c3ccccc23)NC1=O", "note": "(Ac-[Pra]WRQ[Lys(N3)][Pra]FVD[Lys(N3)]Y-NH2; triazole 1-5, 6-10)", "values": [
      {"measurement": "inhibition", "setting": "[1]", "result": "Active"},
      {"measurement": "inhibition", "setting": "[2]", "result": 48, "unit": "%"},
      {"measurement": "Activity", "setting": "[3]", "result": "Non-Toxic"}
    ]},
    {"molecule": "CC(C)[C@@H]1NC(=O)[C@H](Cc2ccccc2)NC(=O)[C@@H](NC(=O)[C@@H]2CCCCn3cc(nn3)C[C@H](NC(=O)CCCCCNC(=O)[C@@H](N)CCCCN)C(=O)N[C@@H](Cc3c[nH]c4ccccc34)C(=O)N[C@@H](CCCNC(=N)N)C(=O)N[C@@H](CCC(N)=O)C(=O)N2)Cc2cn(nn2)CCCC[C@@H](C(=O)N[C@@H](Cc2ccc(O)cc2)C(N)=O)NC(=O)[C@H](CC(=O)O)NC1=O", "note": "(H-K[Ahx][Pra]WRQ[Lys(N3)][Pra]FVD[Lys(N3)]Y-NH2; triazole 3-7, 8-12)", "values": [
      {"measurement": "inhibition", "setting": "[4]", "result": "Active"},
      {"measurement": "remaining at 24 h", "setting": "[5]", "result": 20, "unit": "%"},
      {"measurement": "inhibition", "setting": "[6]", "result": 25, "unit": "%"},
      {"measurement": "Activity", "setting": "[7]", "result": "Non-Toxic"}
    ]},
    {"molecule": "CC(C)[C@H](NC(=O)[C@H](Cc1ccccc1)NC(=O)[C@H](C)NC(=O)[C@H](C)NC(=O)[C@H](CCC(N)=O)NC(=O)[C@H](CCCNC(=N)N)NC(=O)[C@@H](N)Cc1c[nH]c2ccccc12)C(=O)N[C@@H](CC(=O)O)C(=O)N[C@@H](CO)C(=O)N[C@@H](Cc1ccc(O)cc1)C(=O)O", "note": "(H-WRQAAFVDSY-OH)", "values": [
      {"measurement": "Activity", "setting": "[8]", "result": "Non-Toxic"},
      {"measurement": "inhibition", "setting": "[6]", "result": 35, "unit": "%"},
      {"measurement": "inhibition", "setting": "[9]", "result": "Dose-Dependent Effect"},
      {"measurement": "inhibition", "setting": "[10]", "result": "inactive"},
      {"measurement": "Activity", "setting": "[7]", "result": "Non-Toxic"},
      {"measurement": "inhibition", "setting": "[11]", "result": "inactive"},
      {"measurement": "half-life at 1200 µM", "setting": "[12]", "result": 2.27, "unit": "min"},
      {"measurement": "inhibition", "setting": "[13]", "result": "Active"},
      {"measurement": "inhibition at 100 µM", "setting": "[14]", "result": 17, "unit": "%"},
      {"measurement": "inhibition", "setting": "[15]", "result": 14, "unit": "%"}
    ]},
    {"molecule": "CCCN(CCC)S(=O)(=O)c1ccc(C(=O)O)cc1", "note": "[PROBENECID]", "values": [
      {"measurement": "inhibition", "setting": "[16]", "result": "Active"},
      {"measurement": "Activity", "setting": "[17]", "result": "Non-Toxic"},
      {"measurement": "inhibition", "setting": "[18]", "result": "inactive"},
      {"measurement": "inhibition", "setting": "[19]", "result": "Active"}
    ]}
  ]
}
